Here are results for two compounds from BindingDB's records for patent US20240368170 (Genentech, 2024).

The assay concerns the target Mitogen-activated protein kinase kinase kinase kinase 1 (Homo sapiens, UniProt Q92918). The assay is described as follows: Lantha Binding Assay. The procedure: For the binding assay, 4 μL 2×HPK1 and Eu-anti-GST antibody were added to each well of the assay plate using a Multidrop reagent dispenser. The solutions were incubated in a 23 C incubator for 1 h. […] The solutions were again incubated in a 23° C. incubator for 1 h.

Sequence of Mitogen-activated protein kinase kinase kinase kinase 1 (Q92918 whole entry): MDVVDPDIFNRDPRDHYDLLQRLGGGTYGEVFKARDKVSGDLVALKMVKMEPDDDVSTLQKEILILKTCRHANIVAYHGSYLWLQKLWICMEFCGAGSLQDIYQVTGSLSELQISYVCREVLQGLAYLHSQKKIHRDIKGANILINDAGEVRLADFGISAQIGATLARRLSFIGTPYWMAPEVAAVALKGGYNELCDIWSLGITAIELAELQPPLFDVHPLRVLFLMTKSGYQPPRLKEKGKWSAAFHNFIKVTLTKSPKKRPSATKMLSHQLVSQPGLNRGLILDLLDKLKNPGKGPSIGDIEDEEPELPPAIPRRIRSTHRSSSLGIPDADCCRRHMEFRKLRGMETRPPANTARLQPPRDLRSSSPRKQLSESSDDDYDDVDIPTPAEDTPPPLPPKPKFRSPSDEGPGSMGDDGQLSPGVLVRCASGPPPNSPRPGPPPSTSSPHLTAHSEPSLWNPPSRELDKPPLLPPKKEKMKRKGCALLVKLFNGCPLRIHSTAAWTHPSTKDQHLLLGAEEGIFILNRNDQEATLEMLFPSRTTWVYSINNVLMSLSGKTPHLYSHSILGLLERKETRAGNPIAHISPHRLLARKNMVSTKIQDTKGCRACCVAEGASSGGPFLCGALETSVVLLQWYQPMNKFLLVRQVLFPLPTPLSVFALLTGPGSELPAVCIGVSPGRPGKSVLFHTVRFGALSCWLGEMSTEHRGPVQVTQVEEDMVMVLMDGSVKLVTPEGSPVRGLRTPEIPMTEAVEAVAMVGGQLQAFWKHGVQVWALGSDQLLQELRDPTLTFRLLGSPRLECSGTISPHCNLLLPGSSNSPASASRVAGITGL

Broadly, the Ki is a dissociation constant, usually derived from enzyme kinetics or from competition with a known ligand. For `CCn1cc(-c2cc(N)c3nnc(NC(=O)[C@@H]4C[C@@H]4F)cc3c2)cn1` [US20240368170, Compound 1a], affinity was put at a Ki of 0.084 µM.

In the case of `CC(C)NC(=O)Nc1cc2cc(-c3cnn(C)c3)cc(N)c2nn1` [US20240368170, Compound 8], the Ki was 0.021 µM.
